# Legend:
# [1] = tested on: all human 14-3-3 protein isoforms; assay: fluorescence polarization (FP), all seven 14-3-3 isoforms (results in words); type: binding; conditions: 50 nM FITC-labelled peptide, 14-3-3 isoforms from 80 μM
# Protocol: Fig. 4 14-3-3 isoform binding specificity of Nedd4-2 phosphomotifs. Binding of FITC-labeled phosphopeptides with 14-3-3 binding motifs of Nedd4-2 (pSer^342, pThr^367 or pSer^448) to all human 14-3-3 isoforms was characterized by FP titrations. The binding affinities of these peptides were determined by fitting FP data to a one-site binding model. The corresponding sequences of these peptides are shown at the top. Background polarization was subtracted from all values. Results are expressed as mean ± SD (n = 3). Error bars are not visible if they are smaller than the size of the symbol.
# The FP assay was performed using a CLARIOstar microplate reader (BMG Labtech, […]) on 384-well black low-volume flat-bottom plates (Corning, New York, USA) in a buffer containing 10 mM HEPES (pH 7.4), 150 mM NaCl, 0.1% (v/v) Tween 20 and 0.1% (w/v) BSA. […] The excitation and emission wavelengths were 482 nm and 530 nm, respectively. The KD values were determined as the mean of three independent measurements using GraphPad Prism version 8.0.1 for Windows, GraphPad Software, La Jolla California USA, www.graphpad.com.
# (§1) Results from the FP assay (Fig. 4) and immunoblot (Supplementary Fig. S1) are represented as means ± SD from three replicates as indicated in the figure legend. Statistical analysis for the data from immunoblot were performed using Graph-Pad Prism 8.4. Student’s t-test was used for comparison of relative changes of samples with and without 14-3-3η at selected timepoints (ns, non-significant P > 0.05; *, P < 0.05).
# Nedd4-2^186–975 = assay: auto-ubiquitination (Ub chain formation) assay, immunoblot; type: biochemical, human; conditions: for Difference (no 14-3-3 minus with 14-3-3): normalized means; for effect on auto-ubiquitination of Nedd4-2^186–975 (in words): Nedd4-2^186–975 with 14-3-3, 1:2 molar ratio, 30 °C
# Protocol: For in vitro ubiquitination assays, 5 µg of human Ub, 50 ng of E1 (mouse Uba1), 200 ng of E2 (mouse Ube2d2) and 500 ng of E3 (phosphorylated Nedd4-2^186–975) were incubated in 30 µl of the reaction mixture in a buffer containing 50 mM Tris pH 7.5, 2 mM ATP, 5 mM MgCl2 and 2 mM DTT and incubated for 5, 10 and 15 min at 30 °C. The reactions were stopped by adding 5 × SDS-PAGE loading buffer (250 mM Tris pH 6.8, 50% glycerol, 500 mM DTT and 10% SDS) and incubating at 95 °C for 3 minutes to denaturate the samples. For reactions with 14-3-3η, Nedd4-2^186–975 was mixed with 14-3-3η in a 1:2 molar ratio and incubated for 30 minutes on ice before starting the reaction. In addition, 20 µl of reaction was separated by conventional SDS-PAGE on a 10% acrylamide gel and electro-blotted against a PVDF membrane in 20 mM Tris pH 7.5, 154 mM glycin and 10% methanol buffer overnight at 4 °C. Rabbit anti-Ub polyclonal antibody (Enzo) and anti-rabbit IgG, HRP-linked Antibody (Cell Signaling Technology) were used to visualize the transferred polyubiquitin chains. Chemiluminescence was induced by ECL and detected using Fusion Solo S (Vilber). The detected bands of E3-Ub were quantitated using the Image Lab software (Bio-Rad).
# as §1
# Supplementary Fig. S1. 14-3-3 slows down the auto-ubiquitination of Nedd4- 2186-975. a Purity and integrity of the samples used in the Ub chain formation assay. The samples were resolved by 10% Tris/Glycine SDS-PAGE and stained with Coomassie G-250. b Ubiquitin (Ub) chain formation assay with and without 14-3-3ε and the representative immunoblot of Ub. Black rectangles denote the borders of the sample zones that were quantified. The presence of ubiquitinated Nedd4-2 in the quantified zones was confirmed by LC-MS analysis. c Relative abundances of ubiquitinated Nedd4-2186-975 with and without 14-3-3η based on the immunoblot of Ub. Error bars represent the standard deviation of three independent experiments. Results show the data distribution. Asterisks represent significant differences according to unpaired Student’s t-tests comparing relative change between samples without and with 14-3-3ε at selected timepoints (ns, non-significant P > 0.05; *, P < 0.05).
# (1 picture or pasted object on this page, not shown here)
substance,measurement,setting,value
FITC-LRSCpSVTDAV [pep-S448],binding to 14-3-3 isoforms (in words),[1],binds to all 14-3-3 isoforms in the low micromolar range
FITC-ARSSpTVTGGE [pep-T367],binding to 14-3-3 isoforms (in words),[1],"very weak, to all 14-3-3 isoforms except ε and σ"
"14-3-3η: 14-3-3 protein eta isoform, stable dimer, known Nedd4-2 binding partner",Difference (no 14-3-3 minus with 14-3-3),Nedd4-2^186–975; 5 min,0.1757
same,relative abundance of ubiquitinated Nedd4-2^186–975,"Nedd4-2^186–975; 5 min, with 14-3-3, mean of n = 3, normalized (mean without 14-3-3 = 1), listed as 14-3-3",0.8243
same,relative abundance of ubiquitinated Nedd4-2^186–975,"Nedd4-2^186–975; 5 min, with 14-3-3, mean of n = 3, normalized (mean without 14-3-3 = 1), listed as 1433",0.8243
same,abundance of ubiquitinated Nedd4-2^186–975,"Nedd4-2^186–975; 5 min, with 14-3-3, mean of n = 3, not normalized",1.509
same,relative abundance of ubiquitinated Nedd4-2^186–975,"Nedd4-2^186–975; 5 min, with 14-3-3, replicate 1, normalized (mean without 14-3-3 = 1)",0.8139
same,abundance of ubiquitinated Nedd4-2^186–975,"Nedd4-2^186–975; 5 min, with 14-3-3, replicate 1, not normalized",1.49
same,relative abundance of ubiquitinated Nedd4-2^186–975,"Nedd4-2^186–975; 5 min, with 14-3-3, replicate 2, normalized (mean without 14-3-3 = 1)",1.075
same,abundance of ubiquitinated Nedd4-2^186–975,"Nedd4-2^186–975; 5 min, with 14-3-3, replicate 2, not normalized",1.967
same,relative abundance of ubiquitinated Nedd4-2^186–975,"Nedd4-2^186–975; 5 min, with 14-3-3, replicate 3, normalized (mean without 14-3-3 = 1)",0.5843
same,abundance of ubiquitinated Nedd4-2^186–975,"Nedd4-2^186–975; 5 min, with 14-3-3, replicate 3, not normalized",1.069
same,Difference (no 14-3-3 minus with 14-3-3),Nedd4-2^186–975; 10 min,0.2602
same,relative abundance of ubiquitinated Nedd4-2^186–975,"Nedd4-2^186–975; 10 min, with 14-3-3, mean of n = 3, normalized (mean without 14-3-3 = 1), listed as 14-3-3",0.7398
same,relative abundance of ubiquitinated Nedd4-2^186–975,"Nedd4-2^186–975; 10 min, with 14-3-3, mean of n = 3, normalized (mean without 14-3-3 = 1), listed as 1433",0.7398
same,abundance of ubiquitinated Nedd4-2^186–975,"Nedd4-2^186–975; 10 min, with 14-3-3, mean of n = 3, not normalized",2.393
same,relative abundance of ubiquitinated Nedd4-2^186–975,"Nedd4-2^186–975; 10 min, with 14-3-3, replicate 1, normalized (mean without 14-3-3 = 1)",0.713
same,abundance of ubiquitinated Nedd4-2^186–975,"Nedd4-2^186–975; 10 min, with 14-3-3, replicate 1, not normalized",2.306
same,relative abundance of ubiquitinated Nedd4-2^186–975,"Nedd4-2^186–975; 10 min, with 14-3-3, replicate 2, normalized (mean without 14-3-3 = 1)",0.8702
same,abundance of ubiquitinated Nedd4-2^186–975,"Nedd4-2^186–975; 10 min, with 14-3-3, replicate 2, not normalized",2.814
same,relative abundance of ubiquitinated Nedd4-2^186–975,"Nedd4-2^186–975; 10 min, with 14-3-3, replicate 3, normalized (mean without 14-3-3 = 1)",0.6363
same,abundance of ubiquitinated Nedd4-2^186–975,"Nedd4-2^186–975; 10 min, with 14-3-3, replicate 3, not normalized",2.058
same,Difference (no 14-3-3 minus with 14-3-3),Nedd4-2^186–975; 15 min,0.2943
same,relative abundance of ubiquitinated Nedd4-2^186–975,"Nedd4-2^186–975; 15 min, with 14-3-3, mean of n = 3, normalized (mean without 14-3-3 = 1), listed as 14-3-3",0.7057
same,relative abundance of ubiquitinated Nedd4-2^186–975,"Nedd4-2^186–975; 15 min, with 14-3-3, mean of n = 3, normalized (mean without 14-3-3 = 1), listed as 1433",0.7057
same,abundance of ubiquitinated Nedd4-2^186–975,"Nedd4-2^186–975; 15 min, with 14-3-3, mean of n = 3, not normalized",3.153
same,relative abundance of ubiquitinated Nedd4-2^186–975,"Nedd4-2^186–975; 15 min, with 14-3-3, replicate 1, normalized (mean without 14-3-3 = 1)",0.7206
same,abundance of ubiquitinated Nedd4-2^186–975,"Nedd4-2^186–975; 15 min, with 14-3-3, replicate 1, not normalized",3.22
same,relative abundance of ubiquitinated Nedd4-2^186–975,"Nedd4-2^186–975; 15 min, with 14-3-3, replicate 2, normalized (mean without 14-3-3 = 1)",0.776
same,abundance of ubiquitinated Nedd4-2^186–975,"Nedd4-2^186–975; 15 min, with 14-3-3, replicate 2, not normalized",3.467
same,relative abundance of ubiquitinated Nedd4-2^186–975,"Nedd4-2^186–975; 15 min, with 14-3-3, replicate 3, normalized (mean without 14-3-3 = 1)",0.6205
same,abundance of ubiquitinated Nedd4-2^186–975,"Nedd4-2^186–975; 15 min, with 14-3-3, replicate 3, not normalized",2.772
same,effect on auto-ubiquitination of Nedd4-2^186–975 (in words),Nedd4-2^186–975,reduced
same,effect on auto-ubiquitination of Nedd4-2^186–975 (in words),Nedd4-2^186–975; listed as 14-3-3,slows down
FITC-PRSLpSSPTVT [pep-S342],binding to 14-3-3 isoforms (in words),[1],measurable binding affinity only to 14-3-3σ
